We go through 32 compounds from ChEMBL document CHEMBL1130157 (J Med Chem, 1997).

The term IC50 denotes the concentration at which inhibition is half-maximal. In general, inhibition refers to the change of the read-out against control, counted positive when it falls. A lower inhibition goes with little suppression. The term EC50 denotes the midpoint of the concentration-response curve.

Molecules are shown by their SMILES.

For assay [1], the target named is GABA-A receptor; anion channel. As to the kind of experiment: Displacement of [3H]flunitrazepam from rat brain GABA-A Benzodiazepine receptor. (In general: In a radioligand displacement assay an active substance lowers the binding of a labelled ligand.)
The next assay concerns the target Translocator protein (Rattus norvegicus, UniProt P16257). As to the kind of experiment: Displacement of Ro 5-4864 from peripheral (renal cell) Benzodiazepine receptor.
For assay [2], the target named is GABA-A receptor; anion channel (Rattus norvegicus) (UniProt O09028+P15431+P18506+P18508+P19969+P20236+P23574+P23576+P28471+P28473+P30191+P62813+P63079+P63138+Q91ZM7+Q9ES14). As to the kind of experiment: Percentage inhibition of [3H]flunitrazepam binding to rat brain GABA-A benzodiazepine receptor at 40 uM.
Assay [3] deals with GABA A receptor alpha-2/beta-2/gamma-2 (Homo sapiens) (UniProt P47870+P18507+P47869). Kind of assay: Maximal potentiation of GABA-evoked Cl- currents in Xenopus oocytes expressing human alpha-2-beta-2-gamma-2 subunits. The class given is functional, cell-based. Conditions: Oocyte.
The target of assay [4] is T1, GABA A receptor alpha-2/beta-2/gamma-2 (Homo sapiens, UniProt P18507+P47869+P47870).
T1 sequence (P47870 whole entry): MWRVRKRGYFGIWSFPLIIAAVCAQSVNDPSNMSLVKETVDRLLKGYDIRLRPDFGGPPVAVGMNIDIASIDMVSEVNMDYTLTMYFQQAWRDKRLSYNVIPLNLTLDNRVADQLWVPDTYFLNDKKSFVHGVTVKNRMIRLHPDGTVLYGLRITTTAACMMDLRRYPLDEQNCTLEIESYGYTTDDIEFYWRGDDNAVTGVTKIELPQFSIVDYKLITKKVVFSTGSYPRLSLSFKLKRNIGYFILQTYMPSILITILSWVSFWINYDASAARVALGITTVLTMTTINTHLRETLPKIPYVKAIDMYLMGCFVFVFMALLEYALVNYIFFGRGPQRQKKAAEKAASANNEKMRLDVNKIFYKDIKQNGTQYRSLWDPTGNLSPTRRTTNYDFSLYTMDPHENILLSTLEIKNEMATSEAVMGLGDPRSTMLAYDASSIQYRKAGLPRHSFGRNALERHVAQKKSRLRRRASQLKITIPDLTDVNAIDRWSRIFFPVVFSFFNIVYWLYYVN
T1 sequence (P18507 whole entry): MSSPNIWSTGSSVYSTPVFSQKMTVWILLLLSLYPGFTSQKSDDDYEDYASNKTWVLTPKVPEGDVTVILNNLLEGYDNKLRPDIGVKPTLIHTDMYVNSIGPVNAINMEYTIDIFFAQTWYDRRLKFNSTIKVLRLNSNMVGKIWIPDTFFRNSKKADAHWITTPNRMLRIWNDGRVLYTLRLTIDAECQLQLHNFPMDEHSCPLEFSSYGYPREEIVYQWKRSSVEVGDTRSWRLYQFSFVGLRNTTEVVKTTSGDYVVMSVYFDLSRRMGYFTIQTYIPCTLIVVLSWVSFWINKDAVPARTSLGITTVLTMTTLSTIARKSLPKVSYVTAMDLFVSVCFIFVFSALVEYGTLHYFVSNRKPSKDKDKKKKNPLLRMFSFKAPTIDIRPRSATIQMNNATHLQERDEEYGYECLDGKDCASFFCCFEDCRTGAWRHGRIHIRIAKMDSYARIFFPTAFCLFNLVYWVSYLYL
T1 sequence (P47869 whole entry): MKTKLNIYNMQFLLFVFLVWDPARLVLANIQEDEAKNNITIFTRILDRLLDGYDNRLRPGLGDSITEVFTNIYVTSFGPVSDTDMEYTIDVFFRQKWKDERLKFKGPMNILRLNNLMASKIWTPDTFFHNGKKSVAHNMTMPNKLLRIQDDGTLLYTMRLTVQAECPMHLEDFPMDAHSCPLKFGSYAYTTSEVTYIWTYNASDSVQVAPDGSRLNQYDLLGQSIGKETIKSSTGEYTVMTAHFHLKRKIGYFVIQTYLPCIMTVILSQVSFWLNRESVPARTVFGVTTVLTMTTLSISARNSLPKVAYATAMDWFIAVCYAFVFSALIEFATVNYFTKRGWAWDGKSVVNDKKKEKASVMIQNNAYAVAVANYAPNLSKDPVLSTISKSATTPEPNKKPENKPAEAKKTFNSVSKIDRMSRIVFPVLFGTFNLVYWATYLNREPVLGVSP
Kind of assay: Potentiation of GABA-evoked Cl- currents in Xenopus oocytes expressing human alpha-2-beta-2-gamma-2 subunits. The class given is functional, cell-based, Oocyte.

Translocator protein, sequence (P16257 whole entry, looked up): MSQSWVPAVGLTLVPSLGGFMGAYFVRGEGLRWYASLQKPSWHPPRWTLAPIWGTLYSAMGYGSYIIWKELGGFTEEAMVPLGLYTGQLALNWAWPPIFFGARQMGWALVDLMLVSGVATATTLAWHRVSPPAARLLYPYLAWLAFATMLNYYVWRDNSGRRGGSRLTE

For `CCOC(=O)Cc1c(-c2ccccc2)nc2ccc(C)cn12`, the half-maximal inhibitory concentration (IC50) in assay [1] was 1.39 µM; on Translocator protein, above 100 µM.

Consider `CCCN(CCC)C(=O)Cc1c(-c2ccccc2)nc2ccc(I)cn12`, for which the IC50 in assay [1] is 0.286 µM; at Translocator protein, 0.023 µM.

Take `CCOC(=O)Cc1c(-c2ccc(Cl)cc2)nc2ccc(Cl)cn12`: the values for the IC50 (in assay [1]; at Translocator protein) were 0.695 µM and above 100 µM, respectively.

As to `CCCN(CCC)C(=O)Cc1c(-c2ccc(Cl)cc2)nc2ccc(Cl)cn12` [ALPIDEM], the IC50 in assay [1] came out at 0.026 µM; at Translocator protein it was 0.0079 µM.

As for `CCCN(CCC)C(=O)Cc1c(-c2ccccc2)nc2ccccn12`, the IC50 in assay [1] turned out to be 0.464 µM; on Translocator protein, 0.08 µM.

With `CCCN(CCC)C(=O)Cc1c(-c2ccccc2)nc2c(Cl)cc(Cl)cn12`, in assay [2], the inhibition is 46%. Also, on Translocator protein, the IC50 came to 0.012 µM.

For `CCCN(CCC)C(=O)Cc1c(-c2ccccc2)nc2ccc(C)cn12`, the IC50 came to 0.125 µM in assay [1] and 0.0345 µM on Translocator protein.

As to `CCOC(=O)c1c(-c2ccc(C)cc2)nc2ccc(C)cn12`, the IC50 in assay [1] was 1.15 µM; on Translocator protein, above 100 µM.

Regarding `CCCN(CCC)C(=O)Cc1c(-c2ccccc2)nc2ccc([N+](=O)[O-])cn12`, the IC50 came out at 2.74 µM in assay [1] and 0.0118 µM at Translocator protein.

In assay [2], `CCCN(CCC)C(=O)Cc1c(-c2ccc(Cl)cc2)nc2c(Cl)cc(C(F)(F)F)cn12` registered an inhibition of 0%. The compound further displayed an IC50 at Translocator protein of 0.037 µM.

Turning to `CCCN(CCC)C(=O)Cc1c(-c2ccccc2)nc2ccc(Cl)cn12`, the results for the IC50 (in assay [1]; on Translocator protein) were 0.086 µM and 0.004 µM, respectively. Also, the Efficacy in assay [3] amounted to 139%. The EC50 in assay [4] is 0.13 µM.

As to `CCCN(CCC)C(=O)Cc1c(-c2ccccc2)nc2ccc(Br)cn12`, the half-inhibitory concentration (IC50) in assay [1] is 0.116 µM; on Translocator protein it was 0.0145 µM.

Consider `CCCN(CCC)C(=O)Cc1c(-c2ccccc2)nc2ccc(OC)cn12`, for which the IC50 was determined as 2.83 µM in assay [1] and 0.0336 µM on Translocator protein.

The compound `CCCN(CCC)C(=O)Cc1c(-c2ccccc2)nc2c(C)cc(Br)cn12` returned an inhibition in assay [2] of 68%. At Translocator protein, the IC50 was 0.0135 µM.

For `CCOC(=O)c1c(-c2ccccc2)nc2ccc(Cl)cn12`, the figures for the IC50 (in assay [1]; on Translocator protein) were 2.12 µM and above 100 µM, respectively.

Turning to `CCCCOC(=O)CCc1c(-c2ccccc2)nc2ccc(Cl)cn12`, the IC50 in assay [1] is 1.18 µM; at Translocator protein it was above 100 µM.

For `O=C(Cc1c(-c2ccc(Cl)cc2)nc2ccc(Cl)cn12)N1CCCCC1`, the IC50 in assay [1] is 0.24 µM; at Translocator protein, 0.0187 µM.

Compound `CCCN(CCC)C(=O)Cc1c(-c2ccc(Cl)cc2)nc2c(Cl)cc(Cl)cn12` [ALPDEM] registered an inhibition in assay [2] of 0%. On Translocator protein, this compound returned an IC50 of 0.02 µM.

On to `CCOC(=O)Cc1c(-c2ccccc2)nc2ccc(Cl)cn12`, for which the IC50 in assay [1] is 1.17 µM; at Translocator protein it was above 100 µM.

For the compound `CCCCOC(=O)Cc1c(-c2ccccc2)nc2ccc(C)cn12`, the IC50 was 3.15 µM in assay [1] and above 100 µM on Translocator protein.

As to `CCCN(CCC)C(=O)Cc1c(-c2ccc(Cl)cc2)nc2ccc(Br)cn12`, the IC50 in assay [1] is 0.058 µM; at Translocator protein, 0.012 µM.

Turning to `O=C(Cc1c(-c2ccc(Cl)cc2)nc2ccc(Cl)cn12)N1CCCC1`, the results for the IC50 (in assay [1]; at Translocator protein) were 0.092 µM and 0.287 µM, respectively. For the same compound, the Efficacy in assay [3] was determined as 71%. Further, the EC50 in assay [4] turned out to be 6.6 µM.

For the compound `CCOC(=O)CCc1c(-c2ccccc2)nc2ccc(Cl)cn12`, the figures for the concentration for half-maximal inhibition (IC50) (in assay [1]; at Translocator protein) were 1.11 µM and above 100 µM, respectively.

In assay [2], `CCCN(CCC)C(=O)Cc1c(-c2ccc(Cl)cc2)nc2c(Br)cc(Br)cn12` came in with an inhibition of 17%. This compound came in with an IC50 at Translocator protein of 0.0553 µM.

Compound `CCCN(CCC)C(=O)Cc1c(-c2ccccc2)nc2c(Br)cc(C)cn12` yielded an inhibition in assay [2] of 78%. In addition, on Translocator protein, the IC50 worked out at 0.019 µM.

For `CCCCOC(=O)Cc1c(-c2ccc(Cl)cc2)nc2ccc(Cl)cn12`, the IC50 was 2.78 µM in assay [1] and above 100 µM on Translocator protein.

On to `CCCN(CCC)C(=O)CCc1c(-c2ccccc2)nc2ccc(Cl)cn12`, for which the IC50 in assay [1] turned out to be 0.308 µM; at Translocator protein, 3.27 µM.

For the compound `CCCCOC(=O)Cc1c(-c2ccccc2)nc2ccc(Cl)cn12`, the IC50 in assay [1] is 2.5 µM; at Translocator protein, above 100 µM.

As to `Cc1ccc(-c2nc3ccc(C)cn3c2CC(=O)N(C)C)cc1` [ZOLPIDEM], the Efficacy in assay [3] was found to be 150%. On Translocator protein, this compound showed an IC50 of 4.7 µM.

In the case of `O=C(c1c(-c2ccc(Cl)cc2)nc2ccc(Cl)cn12)N1CCCC1`, the IC50 is 2.98 µM in assay [1] and above 100 µM at Translocator protein.

On to `CCCN(CCC)C(=O)c1c(-c2ccc(Cl)cc2)nc2ccc(Cl)cn12`, for which, at Translocator protein, the IC50 amounted to 0.426 µM.

For `CCN(CC)C(=O)c1c(-c2ccc(Cl)cc2)nc2ccc(Cl)cn12`, the figures for the IC50 (in assay [1]; at Translocator protein) were 8.38 µM and 2.04 µM, respectively.
